Tested on: N-kinase
Experiment: in-gel kinase method (histone HF-1 substrate, [32P]-ATP)
Type: biochemical
Conditions: in-gel kinase assay, [32P]-ATP plus Mn2+, with or without 6-TG present; bovine brain fractions
Experimental: During the purification process, kinase activity was monitored using an in-gel kinase method. In this method, a histone HF-1 substrate protein is polymerized into a 10% polyacrylamide gel before the samples to be analyzed are electrophoresed in the gel. Following completion of the electrophoresis, proteins are partially renatured with guanidium isothiocyanate and incubated in the presence [^32P]-ATP plus Mn^2+, with or without 6-TG present. (Activation by Mn^2+, but not by Mg^2+ or Ca^2+, is a distinctive property of N-kinase). The purification of the kinase was monitored by looking for a 6-TG-inhibitable radioactive band corresponding to the site where the kinase phosphorylates the HF-1 substrate in the gel.

inhibition of N-kinase HF-1-phosphorylating activity: inhibitable
SMILES: Nc1nc2nc[nH]c2c(=S)[nH]1 [6-TG, 6-thioguanine]

Reference: US7172871B1, “Methods and compositions for modulating axonal outgrowth of central nervous system neurons” (Children's Medical Center Corporation, priority 2000, dated 2007)
